{"source": "patent US10285984B2", "about": "“Methods and compositions for improving gut microbiota population” (SHANGHAI JIAO TONG UNIVERSITY, priority 2012, dated 2019)", "type_in_all_cases": "in vivo, Wistar rats", "key": {"[1]": {"system": "gut short-chain fatty acid", "test": "Short-chain fatty acid level in rat feces by gas chromatography", "conditions": "oral 100 mg/kg body weight, FIG. 3", "text": "These examples use Wistar rats (8 weeks old, male) as testing subjects and berberine as a representative compound. 40 Wistar rats were acclimatized for two weeks and were subsequently randomly divided into four groups: normal diet group (NCD), normal diet plus berberine treatment (NCD+BBR), high fat diet (HFD), and high fat diet plus berberine treatment (HFD+BBR). Each group continued for another 18 weeks. During these 18 weeks, the NCD+BBR group received intragastric administration of berberine at stated levels. Feces samples from each animal were collected at various time points. 454 pyrosequencing was performed to analyze gut microbiota structure. Gas chromatography was used to assay the short-chain fatty acid level of the feces. In addition, weight, food intake, insulin sensitivity, systemic inflammation levels were monitored and measured during the 18-week period. The levels of short-chain fatty acid (including acetic acid, propionic acid, butyric acid, valeric acid, isobutyric acid, isovaleric acid, etc.) in rat feces were assayed by gas chromatography. […] Therefore, berberine is capable of increasing gut short-chain fatty acid level in rats fed normal diet or high fat diet."}, "[2]": {"test": "Insulin sensitivity in rats: FBG, FINS, HOMA-IR, oral glucose tolerance test, intraperitoneal insulin tolerance test", "text": "These examples use Wistar rats (8 weeks old, male) as testing subjects and berberine as a representative compound. 40 Wistar rats were acclimatized for two weeks and were subsequently randomly divided into four groups: normal diet group (NCD), normal diet plus berberine treatment (NCD+BBR), high fat diet (HFD), and high fat diet plus berberine treatment (HFD+BBR). Each group continued for another 18 weeks. During these 18 weeks, the NCD+BBR group received intragastric administration of berberine at stated levels. Feces samples from each animal were collected at various time points. 454 pyrosequencing was performed to analyze gut microbiota structure. Gas chromatography was used to assay the short-chain fatty acid level of the feces. In addition, weight, food intake, insulin sensitivity, systemic inflammation levels were monitored and measured during the 18-week period. The fasting blood glucose (FBG) and fasting insulin in serum (FINS) were measured for all four experimental groups of rats. […] In order to further examine insulin sensitivity, oral glucose tolerance test and intraperitoneal injection of insulin tolerance test were conducted, and the results are shown in FIG. 5D, and 5E, respectively."}, "[3]": {"test": "Systemic inflammation level in rats: serum LBP, MCP-1, leptin, adiponectin", "text": "(§1) These examples use Wistar rats (8 weeks old, male) as testing subjects and berberine as a representative compound. 40 Wistar rats were acclimatized for two weeks and were subsequently randomly divided into four groups: normal diet group (NCD), normal diet plus berberine treatment (NCD+BBR), high fat diet (HFD), and high fat diet plus berberine treatment (HFD+BBR). Each group continued for another 18 weeks. During these 18 weeks, the NCD+BBR group received intragastric administration of berberine at stated levels. Feces samples from each animal were collected at various time points. 454 pyrosequencing was performed to analyze gut microbiota structure. Gas chromatography was used to assay the short-chain fatty acid level of the feces. In addition, weight, food intake, insulin sensitivity, systemic inflammation levels were monitored and measured during the 18-week period.\nIn order to evaluate the systemic inflammation levels of all four experimental groups of rats, the serum levels of lipopolysaccharide (LPS)-binding protein (LBP), monocyte chemoattractant protein-1 (MCP-1), leptin, and adiponectin were measured, and results are shown in FIG. 6.\nMCP-1 is a pro-inflammatory cytokine that functions in chemotaxis and activation of monocytes/macrophages. Occurrence and development of many inflammation-related diseases are closely related to MCP-1, including atherosclerosis, obesity, type 2 diabetes, arthritis, sepsis, and chronic bacterial infection.\nLeptin is a hormone secreted by adipose tissue, and broadly participates in lipid, glucose, and energy metabolism.\nThe adiponectin levels in all four groups were analyzed. […] Therefore, berberine improves gut microbiota population, reduces LPB, MCP-1, and lpetin level, and increases adiponectin secretion. TABLE 1 16S rRNA gene V3 region sequence of those bacteria enriched by berberine."}, "[4]": {"test": "Obesity phenotype of rats fed normal or high fat diet: body weight, adiposity index, food intake, liver and pancreas", "text": "as §1, with “period. The body weight of all four groups of rats were monitored during the duration of the experiments and analyzed. […] At the end of experiment, animals were euthanized. Fasting body weight, epididymal fat weight, and perirenal fat weight were measured.” for “period.”"}, "gut microbiota": {"system": "gut microbiota", "test": "Gut microbiota structure in rat feces by 454 pyrosequencing and multivariate statistics (PCoA, MANOVA, RDA, Shannon-Wiener index)", "text": "as §1\nThe gut microbiota populations in rats from all four experimental groups were analyzed by 454 pyrosequencing and multivariate statistical analyses. […] Diet also exerted statistically significant influence on gut microbiota population.\n268 berberine-related OTU were identified by redundancy analysis (RDA) and the detailed results are shown in FIG. 2, TABLE 1, and TABLE 2. 93 OTU (SEQ_ID_NO 1-93) (TABLE 1) are enriched by berberine, while 175 OTU (SEQ_ID_NO 94-268) (TABLE 2) were suppressed or eliminated.\nThe taxonomy of these 268 OTU was analyzed using RDP classifier with representative sequence of the OTU. […] Among them, Blautia, Allobaculum, Prevotella, Bacteroides, and Butyricimonas are relatively abundant and are capable of producing short-chain fatty acid."}}, "data": [{"smiles": "COc1ccc2cc3[n+](cc2c1OC)CCc1cc2c(cc1-3)OCO2", "note": "[berberine]", "values": [{"measurement": "effect on levels of acetic acid and propionic acid in feces", "setting": "[1]", "value": "especially pronounced"}, {"measurement": "level of gut short-chain fatty acid in feces", "setting": "[1]; rats fed normal diet or high fat diet", "value": "may increase the level of gut short-chain fatty acid"}, {"measurement": "oral glucose tolerance test", "setting": "[2]; 100 mg/kg body weight, 18 weeks HFD, FIG. 5D", "value": "significantly prevented the loss of glucose tolerance"}, {"measurement": "intraperitoneal injection of insulin tolerance test", "setting": "[2]; 100 mg/kg body weight, 18 weeks HFD, FIG. 5E", "value": "significantly prevented the loss of glucose tolerance and insulin tolerance"}, {"measurement": "fasting insulin in serum (FINS)", "setting": "[2]; 100 mg/kg body weight, HFD+BBR, FIG. 5B", "value": "significantly reduced"}, {"measurement": "HOMA insulin resistance index", "setting": "[2]; 100 mg/kg body weight, HFD, P<0.05, FIG. 5C", "value": "prevented the formation of insulin resistance"}, {"measurement": "fasting blood glucose (FBG) reduction", "setting": "[2]; HFD rats, P<0.05, FIG. 5A", "value": "significant"}, {"measurement": "fasting blood glucose (FBG)", "setting": "[2]; NCD and HFD rats, FIG. 5A", "value": "effectively reduced FBG"}, {"measurement": "serum lipopolysaccharide (LPS)-binding protein (LBP)", "setting": "[3]; 100 mg/kg, HFD, P<0.05, FIG. 6A", "value": "significantly abrogated the increase of serum LBP"}, {"measurement": "serum MCP-1 level", "setting": "[3]; HFD rats, FIG. 6B", "value": "significantly reduced"}, {"measurement": "serum MCP-1 level versus NCD group", "setting": "[3]; HFD+BBR versus NCD", "value": "even lower than that of NCD group"}, {"measurement": "serum leptin level", "setting": "[3]; especially rats fed a HFD, P<0.05, FIG. 6C", "value": "significantly reduced the serum leptin level"}, {"measurement": "adiponectin level normalized against body fat weight", "setting": "[3]; rats fed a HFD, P<0.01, FIG. 6D", "value": "significantly increased adiponectin level"}, {"measurement": "body weight of HFD+BBR group versus normal diet group", "setting": "[4]; 100 mg/kg, entire experiment, P>0.05", "value": "no statistically significant difference"}, {"measurement": "effect on liver and pancreas / side effect of long term use", "setting": "[4]; 18 weeks", "value": "no obvious side effect"}, {"measurement": "adiposity index ([epididymal fat weight+perirenal fat]/fasting weight×100)", "setting": "[4]; 18 weeks, HFD, FIG. 4B", "value": "significantly reduces adiposity index"}, {"measurement": "body weight of rats fed a normal diet", "setting": "[4]; NCD+BBR, FIG. 4", "value": "influences, to a certain degree"}, {"measurement": "body weight growth", "setting": "[4]; intragastric 100 mg/kg, 18 weeks, especially rats fed high fat diet, FIG. 4A", "value": "effectively limits rat body weight growth"}, {"measurement": "food intake (calorie intake)", "setting": "[4]; oral 100 mg/kg body weight, especially rats fed a high fat diet, FIG. 4C", "value": "significant inhibitory effect on rat food intake"}, {"measurement": "number of berberine-related OTU identified (RDA)", "setting": "gut microbiota; FIG. 2", "value": 268, "unit": "OTU"}, {"measurement": "share of overall changes in the gut microbiota population accounted for (PCoA, unweighted Unifrac distance)", "setting": "gut microbiota; NCD and HFD rats, FIG. 1A", "value": 12.6, "unit": "%"}, {"measurement": "diversity of gut microbiota population (Shannon-Wiener index)", "setting": "gut microbiota; P<0.05, FIG. 1C", "value": "reduces diversity of gut microbiota population at a statistically significant level"}, {"measurement": "number of OTU enriched (RDA)", "setting": "gut microbiota; SEQ_ID_NO 1-93, TABLE 1", "value": 93, "unit": "OTU"}, {"measurement": "number of OTU suppressed or eliminated (RDA)", "setting": "gut microbiota; SEQ_ID_NO 94-268, TABLE 2", "value": 175, "unit": "OTU"}, {"measurement": "effect on gut microbiota structure (PCoA)", "setting": "gut microbiota; normal diet group and high fat diet group", "value": "altered gut microbiota structure in both the normal diet group and high fat diet group at a statistically significant level"}]}]}
